Measured values from patent publication US8044206B2, “Nitrogen—containing heterocyclic derivatives having 2,6-disubstituted styryl” (Astellas Pharma Inc., priority 2003, dated 2011).
pIC50: −log10 of the molar value. Counter-ions that a name gives are not always drawn.

Key:
[1] = test system: sodium channel; test: [14C] guanidine uptake induced by veratridine in rat cerebral cortex primary neurons (sodium channel inhibitory action); assay type: cell-based; settings: [14C] guanidine uptake induced by 100 μM veratridine, specific uptake = portion inhibited by 1 mM mexiletine, read-out: Na Channel Inhibition IC50
Description: The [^14C] guanidine uptake experiment was performed by the method of Bonisch et al. (British Journal of Pharmacology 108, 436-442, 1993) with some modifications. The [^14C] guanidine was used as a sodium tracer, and the inhibitory activity on uptake of [^14C] guanidine induced by veratridine as a sodium channel activator into rat cerebral cortex primary neurons was measured.
Pregnant rats (Wistar, female, 19 days of gestation) were anesthetized with ether. The animals were bled to death by giving incision through the carotid artery. The fetuses were taken out of the pregnant rats and after ethanol sterilization, the cerebral cortex was removed from the fetuses. The cerebral cortex was digested with papain and dispersed in culture medium, followed by plating on a poly-L-lysine-coated 96-well white plate at a density of 2.5×10^5 cells/well. Incubation was performed in a CO2 incubator (37° C., 5% CO2) for 2 days.
After each well was washed once with an assay buffer (135 mM choline Cl, 5 mM KCl, 1 mM MgSO4, 5.5 mM glucose, 1 mg/mL BSA, 10 mM Hepes-Tris, pH 7.4), a fresh assay buffer was added to the well, followed by incubation at 25° C. for 10 minutes. Then, a reaction solution (a test compound, [^14C] guanidine and 100 μM, veratridine) was replaced for the buffer, followed by incubation at 25° C. for 15 minutes. The reaction was terminated by washing 3 times with a cold wash buffer (135 mM NaCl, 5 mM KCl, 1 mM MgSO4, 10 mM Hepes-Tris, pH 7.4). To each well, 17 μl of 0.1N NaOH was added. After agitation, 100 μl of scintillator was added to the well and further agitation was continued. The radioactivity was quantified by a liquid scintillation counter. In each experiment, the sodium channel-specific uptake of the whole uptake was designated as portion that was inhibited by 1 mM mexiletine. The action of the test compound on sodium channel is expressed as 50% inhibition concentration (IC50) based on the specific uptake.

[2] = test system: mice with streptozotocin (STZ)-induced diabetic neuropathy; test: Analgesic action in mice with streptozotocin (STZ)-induced diabetic neuropathy, tail pinch test; assay type: in vivo; settings: male ICR mice, Day 15 after STZ, oral 30 mg/kg, 45 minutes prior to measurement, latency after minus before administration
Description: Representative compounds of Compound (I) of the present invention were assessed for the analgesic action in mice with streptozotocin (STZ)-induced diabetic neuropathy to confirm the effect on neuropathic pain. The assessment was performed by the method of Kamei et al. (Pharmacology Biochemistry & Behavior 39, 541-544, 1991) with some modifications.
Male ICR mice of 4 weeks old were intraperitoneally injected with 200 mg/kg weight of STZ to prepare mice with diabetic neuropathic pain. The analgesic action was assessed by the tail pinch test. […] On Day 14 following the STZ injection, a pretest was carried out to determine the response latency before the administration of a test compound. Only the animals showing not longer than 3 seconds of the response latency in the pretest were used for the test compound assessment on the following day (Day 15 after STZ injection).
In the test compound assessment, the response latency after the administration of a test compound was measured. The test compound was orally administered at a dose of 30 mg/kg, 45 minutes prior to the response latency measurement
The analgesic action of a test compound is expressed as prolongation of latency (in seconds) calculated by the formula: (response latency after administration of a test compound)−(response latency before administration of a test compound).

[3] = test system: L5/L6 spinal nerve ligation rats; test: animal or person; settings: Rattus norvegicus, po, read-out: anti-allodynia ED50
Description: The the assessment was performed by the method of Kim and Chung (Pain 50, 355-363, 1992) with some modifications.
Under pentobarbital anesthesia, male SD rats of 5 or 6 weeks old were given surgery to ligate both the left L5 and L6 lumbar nerves tightly with silk threads. For the assessment of analgesic action, the von Frey hair test was adopted. That is, the animal's hindpaw was picked with hair and the lowest strength of hair for limb withdrawal response was designated as a response threshold (log gram) to mechanical stimulation. […] On the day before the assessment of a test compound, the response threshold before administration of a test compound was measured. The animals were divided into 4 to 5 groups so that differences in the mean values of response thresholds before administration among the groups and variation within groups become small. In the assessment of a test compound, the response threshold after administration of the test compound was measured. The test compound was orally given 30 minutes before measurement of the response threshold. The anti-allodynia action potency of a test compound is expressed as ED50. In the calculation of the ED50, the thresholds of ipsilateral and contralateral paws in the solvent group were designated as 0% and 100%, respectively.

Row | SMILES | pIC50 [1] | Anti-STZ-induced pain after oral administration: Latency prolongation [2] | ED50 [3]
1 | Cc1cccc(C)c1/C=C\C1CCNCC1 [Example 38, 4-[(Z)-2-(2,6-dimethylphenyl)vinyl]piperidine] | 5.22 | 3.1 s | –
2 | Cc1cccc(C)c1/C=C/C1CCCN(C)C1 (stereo not drawn) [Example 71, 3-[(E)-2-(2,6-dimethylphenyl)vinyl]-1-methylpiperidine] | 5.11 | 2.3 s | –
3 | Cc1cccc(C)c1/C=C/C1CCN(CCN(C)C)CC1 [Example 74, (2-{4-[(E)-2-(2,6-dimethylphenyl)vinyl]piperidin-1-yl}ethyl)dimethylamine] | 5.14 | 1.8 s | –
4 | Cc1cccc(C)c1/C=C/C1CCCCN1 (stereo not drawn) [Example 62, 2-[(E)-2-(2,6-dimethylphenyl)vinyl]piperidine monohydrochloride] | 5.04 | 2.3 s | –
5 | Cc1cc(N(C)C)cc(C)c1/C=C/C1CCNCC1 [Example 53, N,N,3,5-tetramethyl-4-[(E)-2-piperidin-4-ylvinyl]aniline] | 4.72 | 4.2 s | –
6 | Cc1cccc(C)c1/C=C/CC1CCNCC1 [Example 65, 4-[(2E)-3-(2,6-dimethylphenyl)prop-2-en-1-yl]piperidine] | 4.96 | 2.3 s | –
7 | Cc1cccc(C)c1/C=C/C12CCN(CC1)CC2 [Example 24, 4-[(E)-2-(2,6-dimethylphenyl)vinyl]quinuclidine] | 5.00 | 2.6 s | –
8 | Cc1cccc(C)c1/C=C/C1CCCNCC1 (stereo not drawn) [Example 63, 4-[(E)-2-(2,6-dimethylphenyl)vinyl]azepane] | 5.00 | 3.3 s | –
9 | Cc1cccc(C)c1OCC(C)N (stereo not drawn) [Mexiletine, reference compound] | 4.15 | about 3 seconds | ~70 mg/kg
10 | Cc1cccc(C)c1/C=C/C1CCCCN1C(=O)CN1CCOCC1 (stereo not drawn) [Example 102, 4-(2-{2-[(E)-2-(2,6-dimethylphenyl)vinyl]piperidin-1-yl}-2-oxoethyl)morpholine] | – | 2.1 s | –
11 | Cc1cccc(C)c1/C=C/C1CCN(C(=O)CN2CCOCC2)CC1 [Example 179, 4-(2-{4-[(E)-2-(2,6-dimethylphenyl)vinyl]piperidin-1-yl}-2-oxoethyl)morpholine] | – | 1.8 s | –
12 | Cc1cccc(C)c1/C=C/C1CCN(C(=O)CN2CCCCC2C(N)=O)CC1 (stereo not drawn) [Example 150, 1-(2-{4-[(E)-2-(2,6-dimethylphenyl)vinyl]piperidin-1-yl}-2-oxoethyl)piperidine-2-carboxamide] | – | 1.7 s | –
13 | Cc1cccc(C)c1/C=C/C1CCNCC1 [Example 39, 4-[(E)-2-(2,6-dimethylphenyl)vinyl]piperidine monohydrochloride] | 4.80 | 2.9 s | –
14 | Cc1cccc(Cl)c1/C=C/C1CCNCC1 [Example 37, 4-[(E)-2-(2-chloro-6-methylphenyl)vinyl]piperidine hydrochloride] | 5.00 | 1.9 s | –
15 | Cc1cccc(C)c1/C=C/C1CCN(C(=O)Cn2ccnc2)CC1.Cl [Example 125, 4-[(E)-2-(2,6-dimethylphenyl)vinyl]-1-(1H-imidazol-1-ylacetyl)piperidine monohydrochloride] | – | 1.6 s | –
